Measured values reported in patent US6586368B1, “Condensed heterocylic compounds and herbicides containing them” (Sumitomo Chemical Company, Limited, priority 1998, dated 2003).

How the values were obtained:
Assay type in all cases: in vivo
[1] = tested on: velvetleaf (Abutilon theophrasti); assay: Test Example 2: foliage treatment of velvetleaf in pots, herbicidal activity; settings: emulsifiable concentrate sprayed over the foliage, dosage of 8000 g/ha, 1000 liters per hectare, plants 14 days after seeding, examined after 5 days in greenhouse
Description: Cylindrical plastic pots of 10 cm in diameter and 10 cm in depth were filled with soil, seeded with velvetleaf (Abutilon theophrasti), and kept in a greenhouse for 14 days. After that, according to Formulation Example 2, compound 2-2001 or 3-2001 was formulated into an emulsifiable concentrate, which was diluted in a prescribed amount with water containing a spreading agent and then uniformly sprayed over the foliage of the plants with a sprayer at a ratio of 1000 liters per hectare. The pots were further kept in the greenhouse for 5 days and examined for herbicidal activity.

[2] = tested on: barnyardgrass (Echinochloa oryzicola); assay: Test Example 4: flooded paddy field treatment of barnyardgrass in pots, herbicidal activity; settings: emulsifiable concentrate applied on the water surface of flooded pots, dosage of 1000 g/ha, 50 liters per are, plants 12 days after seeding, examined after 9 days in greenhouse
[3] = tested on: velvetleaf (Abutilon theophrasti); assay: Test Example 3: soil surface treatment, velvetleaf seeded in pots, herbicidal activity; settings: emulsifiable concentrate sprayed over the surface of the soil after seeding, dosage of 2000 g/ha, 1000 liters per hectare, examined after 9 days in greenhouse
[4] = tested on: velvetleaf (Abutilon theophrasti); assay: Test Example 1: foliage treatment of velvetleaf in pots, herbicidal activity; settings: emulsifiable concentrate sprayed over the foliage, dosage of 2000 g/ha, 1000 liters per hectare, plants 14 days after seeding, examined after 8 days in greenhouse

SMILES	herbicidal activity: kill of velvetleaf [1]	herbicidal activity: growth of barnyardgrass [2]	herbicidal activity: germination of velvetleaf [3]	herbicidal activity: growth of velvetleaf [4]
O=c1cc(C(F)(F)F)ncn1-n1ccc2ccccc21 [Compound 3-2001]	completely killed	–	–	–
O=C1C2=C(CCCC2)C(=O)N1n1ccc2ccccc21 [Compound 2-2001]	completely killed	–	–	–
Cn1c(C(F)(F)F)cc(=O)n(-c2coc3cc([N+](=O)[O-])c(F)cc23)c1=O [Compound 1-431]	–	completely inhibited the growth	completely inhibited the germination	completely inhibited the growth
COc1cc2c(-n3c(=O)cc(C(F)(F)F)n(C)c3=O)coc2cc1[N+](=O)[O-] [Compound 1-86, 3-(5-Methoxy-6-nitrobenzo[b]furan-3-yl)-1-methyl-6-(trifluoromethyl)-1,2,3,4-tetrahydropyrimidine-2,4-dione]	–	completely inhibited the growth	completely inhibited the germination	completely inhibited the growth
Cn1c(C(F)(F)F)cc(=O)n(-c2coc3ccc(Cl)cc23)c1=O [Compound 1-4]	–	completely inhibited the growth	completely inhibited the germination	completely inhibited the growth
Cc1cc(Cl)c2occ(-n3c(=O)cc(C(F)(F)F)n(C)c3=O)c2c1 [Compound 1-358]	–	completely inhibited the growth	completely inhibited the germination	completely inhibited the growth
Cn1c(C(F)(F)F)cc(=O)n(-c2coc3ccc(Br)cc23)c1=O [Compound 1-75]	–	completely inhibited the growth	completely inhibited the germination	completely inhibited the growth
Cn1c(C(F)(F)F)cc(=O)n(-c2csc3ccccc23)c1=O [Compound 1-3]	–	completely inhibited the growth	completely inhibited the germination	completely inhibited the growth
CCOC(=O)C(C)Oc1cc2c(-n3c(=O)cc(C(F)(F)F)n(C)c3=O)coc2cc1[N+](=O)[O-] (centres unmarked) [Compound 1-131]	–	completely inhibited the growth	completely inhibited the germination	completely inhibited the growth
Cn1c(C(F)(F)F)cc(=O)n(-c2coc3ccccc23)c1=O [Compound 1-1]	–	completely inhibited the growth	completely inhibited the germination	completely inhibited the growth
COc1cc2c(-n3c(=O)cc(C(F)(F)F)n(C)c3=O)coc2cc1Cl [Compound 1-84, 3-(6-Chloro-5-methoxybenzo[b]furan-3-yl)-1-methyl-6-(trifluoromethyl)-1,2,3,4-tetrahydropyrimidine-2,4-dione]	–	completely inhibited the growth	completely inhibited the germination	completely inhibited the growth
CCOC(=O)C(Cl)Cc1ccc2occ(-n3c(=O)cc(C(F)(F)F)n(C)c3=O)c2c1 (centres unmarked) [Compound 1-407]	–	completely inhibited the growth	completely inhibited the germination	completely inhibited the growth
